Source: patent US10005767B2, “Compositions and methods for inhibition of the JAK pathway” (Rigel Pharmaceuticals, Inc., priority 2009, dated 2018)

These molecules were tested on human primary T-cells, IL-2 stimulated proliferation (JAK-1 and JAK-3 dependent; reported as JAK3 activity) (assay: Human primary T-cell proliferation stimulated by IL-2 (Example 3)). Settings: tested under conditions described in Example 3 (IL-2 stimulated human primary T-cell proliferation); read-out: ability to inhibit JAK3 activity, IC50 range (Table V).
Type: cell-based
How it was run: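 Peripheral-blood human T-cells pre-activated via TCR/CD28, IL-2-starved overnight, then cultured 72 h at 37 °C with compound in Yssel's medium containing IL-2 (80 U/mL in cell suspension). Proliferation read as viable-cell ATP by CellTiter-Glo luminescence; reduction versus control taken as JAK pathway inhibition.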
Work on `Cc1cnc(Nc2ccc(-n3cccc3)c(C#N)c2)nc1Nc1ccc2oc(=O)[nH]c2c1` [Compound I-295, N2-[3-cyano-4-(1H-pyrrol-1-yl)]phenyl-5-methyl-N4-(2-oxo-2,3-dihydro-1,3-benzoxazol-5-yl)-2,4-pyrimidinediamine] yielded an IC50 of less than 0.5 µM. With `COc1ccc(Nc2ncc(C)c(Nc3ccc4oc(=O)[nH]c4c3)n2)cc1C(F)(F)F` [Compound I-297, N2-(4-methoxy-3-trifluoromethyl)phenyl-5-methyl-N4-(2-oxo-2,3-dihydro-1,3-benzoxazol-5-yl)-2,4-pyrimidinediamine] the IC50 was less than 0.5 µM. With `COc1ccc(Nc2ncc(C)c(Nc3ccc4oc(=O)[nH]c4c3)n2)cc1OCc1ccncc1` [Compound I-298, N2-{4-methoxy-3-[(pyridin-4-yl)methoxy]}phenyl-5-methyl-N4-(2-oxo-2,3-dihydro-1,3-benzoxazol-5-yl)-2,4-pyrimidinediamine] the IC50 was less than 0.5 µM. For `COc1ccc(Nc2ncc(C)c(Nc3ccc4oc(=O)[nH]c4c3)n2)cc1OCc1cccnc1` [Compound I-299, N2-{4-methoxy-3-[(pyridin-3-yl)methoxy]}phenyl-5-methyl-N4-(2-oxo-2,3-dihydro-1,3-benzoxazol-5-yl)-2,4-pyrimidinediamine], the IC50 was less than 0.5 µM. For `COc1ccc(Nc2ncc(C)c(Nc3ccc4oc(=O)[nH]c4c3)n2)cc1OCCN(C)C` [Compound I-300, N2-{4-methoxy-3-[2-(dimethylamino)ethoxy]}phenyl-5-methyl-N4-(2-oxo-2,3-dihydro-1,3-benzoxazol-5-yl)-2,4-pyrimidinediamine], the IC50 was less than 0.5 µM. `Cc1cc(C)cc(Nc2ncc(C)c(Nc3ccc4oc(=O)[nH]c4c3)n2)c1` [Compound I-302, N2-(3,5-dimethyl)phenyl-5-methyl-N4-(2-oxo-2,3-dihydro-1,3-benzoxazol-5-yl)-2,4-pyrimidinediamine] showed an IC50 of less than 0.5 µM. `Cc1cnc(Nc2ccc(C#N)c(C(F)(F)F)c2)nc1Nc1ccc2oc(=O)[nH]c2c1` [Compound I-303, N2-(4-cyano-3-trifluoromethyl)phenyl-5-methyl-N4-(2-oxo-2,3-dihydro-1,3-benzoxazol-5-yl)-2,4-pyrimidinediamine] was tested, and the IC50 was less than 0.5 µM. Molecule `Cc1cnc(Nc2cccc(C(O)C(F)(F)F)c2)nc1Nc1ccc2oc(=O)[nH]c2c1` (centres unmarked) [Compound I-304, N2-[3-(1-hydroxy-2,2,2-trifluoroethyl)]phenyl-5-methyl-N4-(2-oxo-2,3-dihydro-1,3-benzoxazol-5-yl)-2,4-pyrimidinediamine] has an IC50 of less than 0.5 µM. For `COC(=O)COc1cccc(Nc2ncc(C)c(Nc3ccc4oc(=O)[nH]c4c3)n2)c1` [Compound I-305, N2-(3-methoxycarbonylmethoxy)phenyl-5-methyl-N4-(2-oxo-2,3-dihydro-1,3-benzoxazol-5-yl)-2,4-pyrimidinediamine], the IC50 was 0.5 to 5 µM. `CNC(=O)COc1cccc(Nc2ncc(C)c(Nc3ccc4oc(=O)[nH]c4c3)n2)c1` [Compound I-306, 5-methyl-N2-(3-methylaminocarbonylmethoxy)phenyl-N4-(2-oxo-2,3-dihydro-1,3-benzoxazol-5-yl)-2,4-pyrimidinediamine] was tested, and the IC50 was less than 0.5 µM. With `Cc1cnc(Nc2ccc(OCC(N)=O)cc2)nc1Nc1ccc2oc(=O)[nH]c2c1` [Compound I-307, N2-(4-aminocarbonylmethoxy)phenyl-5-methyl-N4-(2-oxo-2,3-dihydro-1,3-benzoxazol-5-yl)-2,4-pyrimidinediamine] the IC50 was less than 0.5 µM. Molecule `Cc1cnc(Nc2ccc(NC(=O)c3ccccc3)cc2)nc1Nc1ccc2oc(=O)[nH]c2c1` [Compound I-308, 5-methyl-N4-(2-oxo-2,3-dihydro-1,3-benzoxazol-5-yl)-N2-(4-phenylcarbonylamino)phenyl-2,4-pyrimidinediamine] has an IC50 of less than 0.5 µM. `CC(=O)N(C)c1ccc(Nc2ncc(C)c(Nc3ccc4oc(=O)[nH]c4c3)n2)cc1` [Compound I-309, N2-[4-(N-acetyl-N-methyl)amino]phenyl-5-methyl-N4-(2-oxo-2,3-dihydro-1,3-benzoxazol-5-yl)-2,4-pyrimidinediamine] showed an IC50 of less than 0.5 µM. In the case of `Cc1cnc(Nc2ccc(N3CCCC3)c(C#N)c2)nc1Nc1ccc2oc(=O)[nH]c2c1` [Compound I-310, N2-[3-cyano-4-(pyrrolidin-1-yl)]phenyl-5-methyl-N4-(2-oxo-2,3-dihydro-1,3-benzoxazol-5-yl)-2,4-pyrimidinediamine], the IC50 is reported as less than 0.5 µM. For `Cc1cnc(Nc2ccc(OC(F)F)cc2)nc1Nc1ccc2oc(=O)[nH]c2c1` [Compound I-311, N2-(4-difluoromethoxy)phenyl-5-methyl-N4-(2-oxo-2,3-dihydro-1,3-benzoxazol-5-yl)-2,4-pyrimidinediamine], the IC50 was less than 0.5 µM. For `Cc1cnc(Nc2cccc(OC(F)F)c2)nc1Nc1ccc2oc(=O)[nH]c2c1` [Compound I-312, N2-(3-difluoromethoxy)phenyl-5-methyl-N4-(2-oxo-2,3-dihydro-1,3-benzoxazol-5-yl)-2,4-pyrimidinediamine], the IC50 was less than 0.5 µM. For `CCOc1cc(Nc2ncc(C)c(Nc3ccc4oc(=O)[nH]c4c3)n2)ccc1OC(F)F` [Compound I-313, N2-(4-difluoromethoxy-3-ethoxy)phenyl-5-methyl-N4-(2-oxo-2,3-dihydro-1,3-benzoxazol-5-yl)-2,4-pyrimidinediamine], the IC50 was less than 0.5 µM. For `Cc1cnc(Nc2ccc(OC(F)F)c(Cl)c2)nc1Nc1ccc2oc(=O)[nH]c2c1` [Compound I-314, N2-(3-chloro-4-difluoromethoxy)phenyl-5-methyl-N4-(2-oxo-2,3-dihydro-1,3-benzoxazol-5-yl)-2,4-pyrimidinediamine], the IC50 was less than 0.5 µM. Molecule `Cc1cnc(Nc2cccc(OCC(=O)NC3CC3)c2)nc1Nc1ccc2oc(=O)[nH]c2c1` [Compound I-315, N2-[3-(cyclopropylaminocarbonylmethoxy)]phenyl-5-methyl-N4-(2-oxo-2,3-dihydro-1,3-benzoxazol-5-yl)-2,4-pyrimidinediamine] has an IC50 of less than 0.5 µM. Work on `Cc1cnc(Nc2ccc(N3CCN(C)CC3)c(C(N)=O)c2)nc1Nc1ccc2oc(=O)[nH]c2c1` [Compound I-316, N2-[3-aminocarbonyl-4-(4-methylpiperazino)]phenyl-5-methyl-N4-(2-oxo-2,3-dihydro-1,3-benzoxazol-5-yl)-2,4-pyrimidinediamine] yielded an IC50 of less than 0.5 µM. `Cc1cnc(Nc2ccc(OCC(=O)OC(C)C)cc2)nc1Nc1ccc2oc(=O)[nH]c2c1` [Compound I-317, N2-[4-(isopropoxycarbonylmethoxy)]phenyl-5-methyl-N4-(2-oxo-2,3-dihydro-1,3-benzoxazol-5-yl)-2,4-pyrimidinediamine] gave an IC50 of less than 0.5 µM. In the case of `CCNC(=O)Nc1ccc(Nc2ncc(C)c(Nc3ccc4oc(=O)[nH]c4c3)n2)cc1` [Compound I-318, N2-[4-(ethylaminocarbonylamino)]phenyl-5-methyl-N4-(2-oxo-2,3-dihydro-1,3-benzoxazol-5-yl)-2,4-pyrimidinediamine], the IC50 is reported as less than 0.5 µM. For `Cc1cnc(Nc2cccc(OCC(N)=O)c2)nc1Nc1ccc2oc(=O)[nH]c2c1` [Compound I-319, N2-[3-(aminocarbonylmethoxy)]phenyl-5-methyl-N4-(2-oxo-2,3-dihydro-1,3-benzoxazol-5-yl)-2,4-pyrimidinediamine], the IC50 was less than 0.5 µM. Molecule `Cc1cnc(Nc2cccc(OCC(=O)N3CCOCC3)c2)nc1Nc1ccc2oc(=O)[nH]c2c1` [Compound I-320, 5-methyl-N2-[3-(morpholinocarbonylmethoxy)]phenyl-N4-(2-oxo-2,3-dihydro-1,3-benzoxazol-5-yl)-2,4-pyrimidinediamine] has an IC50 of less than 0.5 µM. In the case of `Cc1cnc(Nc2cccc(C(=O)N3CCN(C)CC3)c2)nc1Nc1ccc2oc(=O)[nH]c2c1` [Compound I-321, 5-methyl-N2-[3-(4-methylpiperazin-1-yl)carbonyl]phenyl-N4-(2-oxo-2,3-dihydro-1,3-benzoxazol-5-yl)-2,4-pyrimidinediamine], the IC50 is reported as less than 0.5 µM. For `Cc1cnc(Nc2ccc(C(=O)N3CCN(C)CC3)cc2)nc1Nc1ccc2oc(=O)[nH]c2c1` [Compound I-322, 5-methyl-N2-[4-(4-methylpiperazin-1-yl)carbonyl]phenyl-N4-(2-oxo-2,3-dihydro-1,3-benzoxazol-5-yl)-2,4-pyrimidinediamine], the IC50 was less than 0.5 µM. `CNC(=O)c1cc(Nc2ncc(C)c(Nc3ccc4oc(=O)[nH]c4c3)n2)ccc1N1CCN(C)CC1` [Compound I-323, 5-methyl-N2-[3-methylaminocarbonyl-4-(4-methylpiperazino)]phenyl-N4-(2-oxo-2,3-dihydro-1,3-benzoxazol-5-yl)-2,4-pyrimidinediamine] gave an IC50 of less than 0.5 µM. `Cc1cnc(Nc2ccc(OC(C)(C)C(N)=O)cc2)nc1Nc1ccc2oc(=O)[nH]c2c1` [Compound I-324, N2-[4-(1-aminocarbonyl-1-methyl)ethoxy]phenyl-5-methyl-N4-(2-oxo-2,3-dihydro-1,3-benzoxazol-5-yl)-2,4-pyrimidinediamine] gave an IC50 of less than 0.5 µM. `CNC(=O)COc1cccc(Nc2ncc(C)c(Nc3ccc4oc(=O)[nH]c4c3)n2)c1C` [Compound I-325, 5-methyl-N2-(2-methyl-3-methylaminocarbonylmethoxy)phenyl-N4-(2-oxo-2,3-dihydro-1,3-benzoxazol-5-yl)-2,4-pyrimidinediamine] showed an IC50 of 0.5 to 5 µM. `Cc1cnc(Nc2cccc(OCC(=O)N(C)C)c2)nc1Nc1ccc2oc(=O)[nH]c2c1` [Compound I-326, N2-(3-dimethylaminocarbonylmethoxy)phenyl-5-methyl-N4-(2-oxo-2,3-dihydro-1,3-benzoxazol-5-yl)-2,4-pyrimidinediamine] showed an IC50 of less than 0.5 µM. In the case of `Cc1cnc(Nc2ccc(N3CCOCC3)c(C#N)c2)nc1Nc1ccc2oc(=O)[nH]c2c1` [Compound I-327, N2-(3-cyano-4-morpholino)phenyl-5-methyl-N4-(2-oxo-2,3-dihydro-1,3-benzoxazol-5-yl)-2,4-pyrimidinediamine], the IC50 is reported as less than 0.5 µM. `COc1cccc(Nc2ncc(C)c(Nc3ccc4oc(=O)[nH]c4c3)n2)c1C` [Compound I-328, N2-(3-methoxy-2-methyl)phenyl-5-methyl-N4-(2-oxo-2,3-dihydro-1,3-benzoxazol-5-yl)-2,4-pyrimidinediamine] was tested, and the IC50 was 0.5 to 5 µM.
